Data: patent US6699983B1, “Integrin-linked kinase and its uses” (Sunnybrook Health Sciences Centre, priority 1995, dated 2004)

Assays:
ILK [1] = experiment: ILK activation by insulin in IEC-18 cells (immune complex kinase assay, MBP substrate); assay type: cell-based, rat; conditions: quiescent, serum-starved IEC-18 cells
Method: Assessment of ILK activation by insulin on IEC-18 cells. IEC 18 cells are rat colon epithelial cells that are cultured routinely in α-MEM medium supplemented with insulin (10 mg/liter), glucose 3.6 g/liter, and 5% FCS. When IEC 18 cells are grown to 80% confluence, they are serum starved for 18 hours prior to activation by insulin. Before addition of insulin, media are removed and 4 ml of α-MEM+insulin 6 μM is added to the 100 mm dishes. P13 kinase inhibitors such as LY294002 at 50 μM or wortmannin at 200 nM are added optionally to block P13 kinase dependent ILK activation. At the designated times, dishes are washed 3× with ice cold PBS and cells are lysed in 500 μl lysis buffer: 150 mM NaCI, 1% NP-40, 0.5% sodium deoxycholate, 50 mM Hepes pH 7.5, 10 μg/ml leupeptin, 1 mM PMSF, 2.5 μl aprotinin/mi lysis buffer, NaF 5 mM, Sodium vanadate 1 mM. After assessment of protein concentration by Bradford assay, 500 μl samples containing 200 μg of proteins are incubated for 2 hrs at 4° C. with 20 μl of Protein A-Sepharose to preadsorb the non specific kinases. The lysate is then incubated overnight with 2 μg of rabbit anti ILK antiserum at 4° C. under rotation.
The immunocomplexes are then captured by incubating the lysate with 15 μl of Protein A Sepharose for 2 hrs at 4° C. […] Phosphorylation level of MBP is assessed by phosphorimager analysis or exposure to an X ray film.

ILK [2] = target: T1, ILK (Homo sapiens, UniProt Q13418); experiment: Regulation of ILK kinase by phosphoinositides in vitro (ILK5-GST, MBP substrate); assay type: biochemical; conditions: lipid vesicles with phosphatidylserine and phosphatidylcholine, 30° C.
T1 construct: GST
T1 sequence (Q13418 1-452): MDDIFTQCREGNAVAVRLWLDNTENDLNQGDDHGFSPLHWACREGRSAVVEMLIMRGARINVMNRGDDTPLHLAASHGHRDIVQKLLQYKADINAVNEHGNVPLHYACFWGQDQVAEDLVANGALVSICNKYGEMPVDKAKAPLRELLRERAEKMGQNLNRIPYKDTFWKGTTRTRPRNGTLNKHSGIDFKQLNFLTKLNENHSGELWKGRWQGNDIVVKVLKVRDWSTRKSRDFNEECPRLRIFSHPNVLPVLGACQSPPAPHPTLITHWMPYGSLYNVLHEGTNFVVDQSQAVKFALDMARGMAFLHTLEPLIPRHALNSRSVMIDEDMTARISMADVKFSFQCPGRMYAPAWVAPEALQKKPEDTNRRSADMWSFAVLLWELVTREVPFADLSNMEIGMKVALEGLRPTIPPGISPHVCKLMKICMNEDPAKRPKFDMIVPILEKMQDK
Method: Assessment of regulation of ILK kinase by phosphoinositides. Ptdlns(3)P, Ptdins(3,4)P2 and Ptdlns(3,4,5)P3 were dried under nitrogen and resuspended at 0.1 mM in Hepes 10 mM, pH 7. 0 with phosphatidylserineand phosphatidylcholine, both at 1 mM. The lipid suspensions were vortexed and further sonicated for 20 min in order to generate unilamellar vesicles. 11 μl of ILK5-GST in kinase buffer were combined to 4 μl of lipids and 25 μl of kinase reaction solution containing 2.5 μl of MBP and 5 μCi of γ^32 P-ATP. The reaction proceeded for […] at 30° C. The reaction was stopped by adding an equal volume of 2× sample buffer. The samples were run on a 12% non reducing SDS-PAGE gel.

ILK activity in vitro in the presence of phosphoinositide (ILK [2])	Substance	stimulation of ILK activity (ILK [1])
–	insulin	rapidly stimulated
stimulated	phosphatidylinositol (3,4,5) trisphosphate [Ptdlns(3,4,5)P3]	–
not	phosphatidylinositol(3) monophosphate [Ptdlns(3)P]	–
not	phosphatidylinositol(3,4) bisphosphate [Ptdlns(3,4)P2]	–
